Results on 13 compounds are retold here after ChEMBL document CHEMBL2034857, “Discovery of the macrocycle (9E)-15-(2-(pyrrolidin-1-yl)ethoxy)-7,12,25-trioxa-19,21,24-triaza-tetracyclo[18.3.1.1(2,5).1(14,18)]hexacosa-1(24),2,4,9,14(26),15,17,20,22-nonaene (SB1578), a potent inhibitor of janus kinase 2/fms-like tyrosine kinase-3 (JAK2/FLT3) for the treatment of rheumatoid …” (J Med Chem, 2012).

The pIC50 is −log10 of the IC50, conventionally taken in molar units.

pIC50: −log10 of the molar value. A value given as a limit tells only on which side of the number the result lay.

Assay [1] addresses Tyrosine-protein kinase JAK2 (Homo sapiens, UniProt O60674). Put plainly: Inhibition of recombinant JAK2 using poly(Glu,Ala,Tyr) as substrate after 2 hrs by luminometric assay.
Assay [2] addresses T1, Tyrosine-protein kinase JAK3 (Homo sapiens, UniProt P52333).
T1 sequence (P52333 whole entry): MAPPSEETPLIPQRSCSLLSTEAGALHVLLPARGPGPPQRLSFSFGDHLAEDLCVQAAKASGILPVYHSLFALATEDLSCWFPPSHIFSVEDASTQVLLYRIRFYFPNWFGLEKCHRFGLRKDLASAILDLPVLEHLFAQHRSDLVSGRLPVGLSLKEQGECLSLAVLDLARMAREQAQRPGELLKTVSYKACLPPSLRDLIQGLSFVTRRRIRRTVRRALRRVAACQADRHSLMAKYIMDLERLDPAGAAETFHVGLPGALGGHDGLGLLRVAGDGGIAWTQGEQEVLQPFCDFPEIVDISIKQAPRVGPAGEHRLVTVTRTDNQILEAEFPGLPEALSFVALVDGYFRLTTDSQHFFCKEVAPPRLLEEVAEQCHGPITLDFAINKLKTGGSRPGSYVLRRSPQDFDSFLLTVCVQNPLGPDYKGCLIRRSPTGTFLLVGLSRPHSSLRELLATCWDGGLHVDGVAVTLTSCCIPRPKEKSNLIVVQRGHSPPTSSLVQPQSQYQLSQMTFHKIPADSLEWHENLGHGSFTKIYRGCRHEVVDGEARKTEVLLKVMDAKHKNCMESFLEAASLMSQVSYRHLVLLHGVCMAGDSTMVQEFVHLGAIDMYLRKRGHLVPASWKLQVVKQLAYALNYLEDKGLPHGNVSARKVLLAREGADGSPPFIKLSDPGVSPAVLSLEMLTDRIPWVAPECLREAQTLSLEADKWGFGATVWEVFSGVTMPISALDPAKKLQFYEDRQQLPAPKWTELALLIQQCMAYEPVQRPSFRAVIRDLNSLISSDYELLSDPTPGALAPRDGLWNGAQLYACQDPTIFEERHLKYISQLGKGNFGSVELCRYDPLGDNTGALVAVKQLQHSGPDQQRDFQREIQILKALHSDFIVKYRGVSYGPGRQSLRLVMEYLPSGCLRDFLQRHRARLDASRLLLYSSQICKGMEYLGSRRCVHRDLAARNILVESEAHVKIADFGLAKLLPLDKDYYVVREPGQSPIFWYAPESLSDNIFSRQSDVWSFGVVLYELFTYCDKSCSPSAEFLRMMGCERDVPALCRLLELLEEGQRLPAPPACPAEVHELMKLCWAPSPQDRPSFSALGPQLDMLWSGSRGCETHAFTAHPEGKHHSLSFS
Kind of assay: Inhibition of recombinant JAK3 using poly(Glu,Ala,Tyr) as substrate after 2 hrs by luminometric assay.

Assay [3] concerns the target Cyclin-dependent kinase 2 (Homo sapiens, UniProt P24941). Kind of assay: Inhibition of recombinant CDK2 using RbING as substrate after 2 hrs by luminometric assay.
Assay [4] has as its target Tyrosine-protein kinase JAK1 (Homo sapiens, UniProt P23458). Kind of assay: Inhibition of recombinant JAK1 using poly(Glu,Ala,Tyr) as substrate after 2 hrs by luminometric assay.
Assay [5] deals with Non-receptor tyrosine-protein kinase TYK2 (Homo sapiens, UniProt P29597). Kind of assay: Inhibition of TYK2.
Sequence of Non-receptor tyrosine-protein kinase TYK2 (P29597 whole entry): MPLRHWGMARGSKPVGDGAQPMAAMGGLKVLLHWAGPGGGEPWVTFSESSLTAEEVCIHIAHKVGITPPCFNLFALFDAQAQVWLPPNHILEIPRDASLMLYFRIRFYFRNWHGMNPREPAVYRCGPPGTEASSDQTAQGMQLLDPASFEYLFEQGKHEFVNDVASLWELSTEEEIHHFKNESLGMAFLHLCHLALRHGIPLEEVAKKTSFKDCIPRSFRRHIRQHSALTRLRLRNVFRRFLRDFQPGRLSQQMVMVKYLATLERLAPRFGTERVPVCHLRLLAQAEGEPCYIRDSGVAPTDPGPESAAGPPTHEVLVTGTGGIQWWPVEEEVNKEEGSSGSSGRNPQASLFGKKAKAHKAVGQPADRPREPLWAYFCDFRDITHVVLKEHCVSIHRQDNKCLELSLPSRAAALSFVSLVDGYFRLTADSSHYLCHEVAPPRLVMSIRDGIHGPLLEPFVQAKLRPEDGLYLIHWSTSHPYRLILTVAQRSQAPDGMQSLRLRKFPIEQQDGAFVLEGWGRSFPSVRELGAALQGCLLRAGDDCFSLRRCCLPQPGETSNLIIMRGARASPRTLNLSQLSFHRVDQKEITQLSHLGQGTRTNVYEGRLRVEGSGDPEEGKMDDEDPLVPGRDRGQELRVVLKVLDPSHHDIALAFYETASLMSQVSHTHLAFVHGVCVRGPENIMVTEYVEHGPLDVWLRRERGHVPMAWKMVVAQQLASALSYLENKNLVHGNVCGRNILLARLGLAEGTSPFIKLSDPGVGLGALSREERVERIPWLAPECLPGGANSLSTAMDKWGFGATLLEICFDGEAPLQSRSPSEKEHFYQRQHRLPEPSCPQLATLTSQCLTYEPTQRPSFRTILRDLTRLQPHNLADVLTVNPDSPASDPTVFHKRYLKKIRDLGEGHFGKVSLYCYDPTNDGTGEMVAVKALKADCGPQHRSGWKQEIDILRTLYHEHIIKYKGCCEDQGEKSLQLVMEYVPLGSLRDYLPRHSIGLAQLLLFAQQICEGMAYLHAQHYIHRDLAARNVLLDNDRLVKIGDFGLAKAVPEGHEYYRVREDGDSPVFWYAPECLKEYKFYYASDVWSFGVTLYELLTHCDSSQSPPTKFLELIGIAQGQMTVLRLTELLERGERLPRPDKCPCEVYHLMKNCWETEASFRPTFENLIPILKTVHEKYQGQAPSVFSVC
The target of assay [6] is T2, Receptor-type tyrosine-protein kinase FLT3 (Homo sapiens, UniProt P36888).
T2 sequence (P36888 whole entry): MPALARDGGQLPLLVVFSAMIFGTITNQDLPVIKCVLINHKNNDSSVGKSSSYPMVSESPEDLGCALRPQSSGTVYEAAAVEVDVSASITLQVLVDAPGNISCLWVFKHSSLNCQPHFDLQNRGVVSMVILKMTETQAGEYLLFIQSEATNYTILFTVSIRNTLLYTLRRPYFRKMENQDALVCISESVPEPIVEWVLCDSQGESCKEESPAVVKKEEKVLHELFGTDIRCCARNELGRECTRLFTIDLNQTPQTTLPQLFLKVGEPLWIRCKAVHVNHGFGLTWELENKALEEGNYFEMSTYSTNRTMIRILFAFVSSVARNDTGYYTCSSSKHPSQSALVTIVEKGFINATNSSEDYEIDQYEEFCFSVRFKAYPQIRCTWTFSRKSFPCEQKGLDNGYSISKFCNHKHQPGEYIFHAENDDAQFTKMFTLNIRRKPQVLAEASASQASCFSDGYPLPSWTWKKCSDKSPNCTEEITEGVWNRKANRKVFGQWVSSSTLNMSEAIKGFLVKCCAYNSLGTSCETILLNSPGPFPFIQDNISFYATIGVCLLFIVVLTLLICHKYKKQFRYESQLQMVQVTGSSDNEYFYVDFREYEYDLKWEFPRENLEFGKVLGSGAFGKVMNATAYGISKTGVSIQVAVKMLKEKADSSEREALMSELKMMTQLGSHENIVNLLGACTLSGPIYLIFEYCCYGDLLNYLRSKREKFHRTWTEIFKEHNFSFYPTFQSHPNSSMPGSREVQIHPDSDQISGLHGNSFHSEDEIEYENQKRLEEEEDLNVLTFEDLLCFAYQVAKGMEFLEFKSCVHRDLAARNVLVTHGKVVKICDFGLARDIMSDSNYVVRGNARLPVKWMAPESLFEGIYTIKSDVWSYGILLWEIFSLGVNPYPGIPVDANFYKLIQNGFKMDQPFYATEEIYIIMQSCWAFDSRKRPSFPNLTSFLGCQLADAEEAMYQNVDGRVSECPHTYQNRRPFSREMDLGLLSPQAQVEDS
Put plainly: Inhibition of recombinant FLT3 using poly(Glu,Tyr) as substrate after 2 hrs by luminometric assay.

Sequence of Tyrosine-protein kinase JAK1 (P23458 whole entry): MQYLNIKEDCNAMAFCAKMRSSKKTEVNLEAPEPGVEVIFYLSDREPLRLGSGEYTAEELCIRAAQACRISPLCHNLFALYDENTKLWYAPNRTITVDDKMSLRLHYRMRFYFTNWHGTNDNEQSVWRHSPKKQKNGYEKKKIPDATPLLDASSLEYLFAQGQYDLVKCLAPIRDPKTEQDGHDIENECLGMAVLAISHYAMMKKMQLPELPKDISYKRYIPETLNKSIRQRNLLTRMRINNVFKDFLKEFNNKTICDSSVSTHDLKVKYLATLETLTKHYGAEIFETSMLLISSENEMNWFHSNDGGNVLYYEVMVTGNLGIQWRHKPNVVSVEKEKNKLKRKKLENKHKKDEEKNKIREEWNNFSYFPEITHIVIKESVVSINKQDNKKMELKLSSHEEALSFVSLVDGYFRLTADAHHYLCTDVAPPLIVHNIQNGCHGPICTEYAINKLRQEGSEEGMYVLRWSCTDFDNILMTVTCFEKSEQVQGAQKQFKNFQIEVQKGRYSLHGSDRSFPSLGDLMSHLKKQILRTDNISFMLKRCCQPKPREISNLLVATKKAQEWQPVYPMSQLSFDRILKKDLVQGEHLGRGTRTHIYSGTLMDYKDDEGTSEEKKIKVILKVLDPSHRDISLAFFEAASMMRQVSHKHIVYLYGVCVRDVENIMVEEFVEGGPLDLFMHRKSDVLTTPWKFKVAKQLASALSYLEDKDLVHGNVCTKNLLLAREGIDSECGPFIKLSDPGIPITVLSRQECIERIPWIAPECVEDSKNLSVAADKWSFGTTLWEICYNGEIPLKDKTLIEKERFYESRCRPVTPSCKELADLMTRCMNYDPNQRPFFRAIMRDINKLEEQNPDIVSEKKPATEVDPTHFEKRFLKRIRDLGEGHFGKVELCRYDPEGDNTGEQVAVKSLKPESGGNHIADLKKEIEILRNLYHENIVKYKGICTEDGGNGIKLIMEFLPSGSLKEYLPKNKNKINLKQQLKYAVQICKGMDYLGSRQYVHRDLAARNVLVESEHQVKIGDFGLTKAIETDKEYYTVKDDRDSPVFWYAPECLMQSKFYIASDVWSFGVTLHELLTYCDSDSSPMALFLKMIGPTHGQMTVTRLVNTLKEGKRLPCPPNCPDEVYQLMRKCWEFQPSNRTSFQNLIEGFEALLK
Sequence of Tyrosine-protein kinase JAK2 (O60674 whole entry): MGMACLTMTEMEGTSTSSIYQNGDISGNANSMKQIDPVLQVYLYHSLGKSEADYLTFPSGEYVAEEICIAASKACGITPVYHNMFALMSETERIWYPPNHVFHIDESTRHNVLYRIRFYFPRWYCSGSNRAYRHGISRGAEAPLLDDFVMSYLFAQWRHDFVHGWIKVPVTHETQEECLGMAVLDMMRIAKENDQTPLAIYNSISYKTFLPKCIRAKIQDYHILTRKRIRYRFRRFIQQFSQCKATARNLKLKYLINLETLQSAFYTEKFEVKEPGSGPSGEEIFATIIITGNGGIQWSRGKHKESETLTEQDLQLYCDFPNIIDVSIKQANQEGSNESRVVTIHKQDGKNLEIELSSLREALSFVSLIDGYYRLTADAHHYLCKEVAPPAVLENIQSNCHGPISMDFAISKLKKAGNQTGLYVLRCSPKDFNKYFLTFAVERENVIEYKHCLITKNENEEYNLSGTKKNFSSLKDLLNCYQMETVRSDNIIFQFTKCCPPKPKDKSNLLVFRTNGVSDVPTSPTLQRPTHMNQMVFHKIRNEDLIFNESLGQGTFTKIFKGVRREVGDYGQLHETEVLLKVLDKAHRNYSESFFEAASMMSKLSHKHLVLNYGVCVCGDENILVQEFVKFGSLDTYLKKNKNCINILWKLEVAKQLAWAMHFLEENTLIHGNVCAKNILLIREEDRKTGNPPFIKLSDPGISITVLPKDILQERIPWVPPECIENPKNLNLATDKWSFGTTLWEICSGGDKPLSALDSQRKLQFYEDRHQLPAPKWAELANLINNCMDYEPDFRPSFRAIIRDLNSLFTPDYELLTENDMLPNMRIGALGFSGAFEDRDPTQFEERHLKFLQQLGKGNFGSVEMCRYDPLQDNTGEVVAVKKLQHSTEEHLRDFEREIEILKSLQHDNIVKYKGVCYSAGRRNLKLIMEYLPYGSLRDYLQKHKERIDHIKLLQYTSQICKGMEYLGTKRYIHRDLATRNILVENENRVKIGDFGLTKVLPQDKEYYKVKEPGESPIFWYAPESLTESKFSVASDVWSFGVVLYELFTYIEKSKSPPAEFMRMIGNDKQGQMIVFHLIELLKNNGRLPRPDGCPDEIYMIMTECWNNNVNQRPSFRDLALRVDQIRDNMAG

Regarding `C1=C/COCc2cncc(c2)-c2ccnc(n2)Nc2cccc(c2)COC/1`, the pIC50 in assay [1] was 6.03; in assay [2], less than 5.00; in assay [3], 6.70; in assay [4], less than 5.00; in assay [5] it was 6.02; in assay [6] it was 6.25.
Consider `CN1C/C=C/COCC2CCCN(C2)c2ccnc(n2)Nc2cccc(c2)C1` (mixture of isomers), for which the pIC50 in assay [1], in assay [2], in assay [3], in assay [4], in assay [5] and in assay [6] was less than 5.00 in each case.
As for `CN1C/C=C/CCn2ccc3ccc(cc32)-c2ccnc(n2)Nc2cccc(c2)C1` (mixture of isomers), the pIC50 in assay [2] was less than 5.00; in assay [3], 7.11; in assay [4] it was 6.00; in assay [5], 5.82; in assay [6], 7.03.
As for `C1=C/Cn2ccc3ccc(cc32)-c2ccnc(n2)Nc2cccc(c2)COC/1` (mixture of isomers), the pIC50 in assay [2] is less than 5.00; in assay [3], 7.08; in assay [4], 5.32; in assay [6] it was 7.14.
Consider `CN1C/C=C/CCOc2cc(ccn2)-c2ccnc(n2)Nc2cccc(c2)C1` (mixture of isomers), for which the pIC50 in assay [1] was 6.59; in assay [2] it was less than 5.00; in assay [3], 7.66; in assay [4] it was 6.77; in assay [5], 7.19; in assay [6] it was 6.51.
`CN1C/C=C/COCc2cncc(c2)-c2ccnc(n2)Nc2cccc(c2)C1` (mixture of isomers): the pIC50 in assay [1] was less than 5.00; in assay [2] it was less than 5.00; in assay [3], 6.38; in assay [4], less than 5.00; in assay [5], 5.23; in assay [6], 5.32.
With `CN1C/C=C/COCC2=CC=C(O2)c2ccnc(n2)Nc2cccc(c2)C1` (mixture of isomers), the pIC50 was 6.09 in assay [1]; less than 5.00 in assay [2]; 6.49 in assay [3]; 5.74 in assay [4]; 5.82 in assay [5]; 6.11 in assay [6].
On to `C1=C2COC/C=C/COCc3cccc(c3)Nc3nccc(n3)C(=C1)O2` (mixture of isomers), for which the negative-log IC50 (pIC50) in assay [1] was 6.66; in assay [2], less than 5.00; in assay [3] it was 6.17; in assay [4], 5.10; in assay [5], 6.17; in assay [6], 6.21.
With `C1=C/Cn2ccc3ccc(cc32)-c2ccnc(n2)Nc2ccc(OCCN3CCCC3)c(c2)COC/1` (mixture of isomers), the negative logarithm of the IC50 (pIC50) was 7.20 in assay [1], 5.94 in assay [2], 6.64 in assay [3] and 8.10 in assay [6].
For `Cc1cnc2nc1-c1ccc3ccn(c3c1)C/C=C/COCc1cc(ccc1OCCN1CCCC1)N2` (mixture of isomers), the pIC50 was 6.43 in assay [1]; less than 5.00 in assay [2]; 5.60 in assay [3]; 5.29 in assay [4]; 6.36 in assay [5]; 7.77 in assay [6].
On to `C1=C/COCc2cc(ccc2OCCN2CCCC2)Nc2nccc(n2)-c2cncc(c2)COC/1` (mixture of isomers), for which the pIC50 in assay [1] is 6.54; in assay [2] it was 6.00; in assay [3] it was 5.49; in assay [4] it was less than 5.00; in assay [5], 6.20; in assay [6] it was 7.20.
With `C1=C/COCc2cc(ccc2OCCN2CCCC2)Nc2nccc(n2)-c2ccnc(c2)OCC/1` (mixture of isomers), the pIC50 in assay [1] was 7.74; in assay [2], 5.85; in assay [3] it was 6.57; in assay [4], 6.01; in assay [5] it was 7.52; in assay [6], 7.51.
On to `CN1C/C=C/COCC2=CC=C(O2)c2ccnc(n2)Nc2ccc(OCCN3CCCC3)c(c2)C1` (mixture of isomers), for which the negative logarithm of the IC50 (pIC50) in assay [2] was less than 5.00; in assay [3] it was 5.80; in assay [4] it was 6.19; in assay [5] it was 6.15; in assay [6] it was 6.92.
